# Test results taken from patent US5254728A, “Complexes containing S(+)-phenyl alkanoic acids and α-hydroxyalkanoic” (priority 1990, dated 1993).
# What was measured:
# [1] = pH 9.5; cited from earlier work
# [2] = in vivo
molecule,measurement,setting,value
CC(O)C(=O)O (centres unmarked) [lactic acid],stability,[1],not being stable
S(+)-ibuprofen-L-(+)-lactic acid complex,tmax,[2],20 min
